Data: paper PMC9007350, “Aurintricarboxylic acid is a canonical disruptor of the TAZ-TEAD transcriptional complex” (PLoS ONE, 2022)

Columns and labels:
[1] = target: T1, YAP/TAZ-binding domain of human TEAD4 (217-434), deacylated (Homo sapiens, UniProt Q15561); assay: Surface plasmon resonance; conditions: one-site binding fit of steady-state response versus concentration; read-out: Kd, affinity between TEAD and ATA
T1 construct: made in house
Experimental: The YAP/TAZ-binding domain of human TEAD4 (217–434) was deacylated and resuspended in 10 mM acetate buffer pH 5.0. TEAD was immobilized on a CM5 sensor chip (Cytiva, product, BR100530) using the amine coupling kit (Cytiva, product, BR10050) as per manufacturer’s guidelines. Various concentrations of ATA were dissolved in buffer containing 20 mM Tris pH 8.0, 150 mM NaCl, 1.5% DMSO and passed over the reference cell and the cell containing immobilized TEAD, and the resonance responses were recorded.

TAZ = target: T2, TAZ (Homo sapiens, UniProt Q9GZV5); assay: ThermoFluor assay, TAZ; type: binding; conditions: full-length TAZ, protein 5 μM
T2 construct: ThermoFluor assays measuring the melting temperatures (Tm) of full-length TAZ or TEAD in the presence of ATA; strep (C); made in house; host or cells: Escherichia coli BL21(DE3)pLysS
T2 sequence (Q9GZV5 whole entry): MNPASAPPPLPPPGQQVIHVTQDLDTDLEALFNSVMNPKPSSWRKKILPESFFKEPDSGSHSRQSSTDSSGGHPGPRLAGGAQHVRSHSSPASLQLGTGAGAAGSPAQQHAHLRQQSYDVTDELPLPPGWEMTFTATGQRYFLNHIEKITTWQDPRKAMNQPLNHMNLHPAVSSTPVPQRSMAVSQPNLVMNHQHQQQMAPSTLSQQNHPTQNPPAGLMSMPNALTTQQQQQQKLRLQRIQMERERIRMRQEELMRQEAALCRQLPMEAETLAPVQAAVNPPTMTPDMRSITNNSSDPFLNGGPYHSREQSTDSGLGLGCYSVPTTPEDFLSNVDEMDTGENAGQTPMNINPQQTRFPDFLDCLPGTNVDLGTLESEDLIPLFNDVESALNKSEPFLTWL
Experimental: To assess changes in protein stability, a dye-based thermal melting assay (ThermoFluor) was used. Purified protein (TAZ or TEAD4), ATA, and Protein Thermal Shift dye (ThermoFisher) were mixed in 96-well plates. The final concentration of the protein was 5 μM. The melting temperature was measured using LightCycler 480 (Roche). Each experiment was repeated at least twice.

[2] = system: TC/TEAD transcriptional profile in TC-expressing NIH3T3 cells; assay: Bulk RNA-Seq, differential gene expression and GSEA (TC ATA v. TC DMSO); type: cell-based, murine
Experimental: NIH3T3 and HEK293 cells were obtained from the American Type Tissue Collection (ATCC, Manassas, VA) and cultured in DMEM containing 10% fetal bovine serum and penicillin/streptomycin. A TEAD dual luciferase reporter assay was performed as previously described. Cells were treated with vehicle control or ATA (10 μM) for 48 h before measuring the luciferase activity or processing the samples for RNA extraction. Each experiment was repeated at least 2-3 times. NIH3T3 cells were used. The extracted RNA (RNeasy Mini, Qiagen) from treated cells was either used for qPCR measurements or sent for bulk RNA-Seq. Sequencing runs were performed on an Illumina HiSeq 4000 sequencer (Genewiz). Subsequent bioinformatics analysis was performed in the Galaxy Project platform. Paired end reads were aligned to the murine genome ([…]2 [27]. Raw count files were generated with featureCounts using a corresponding GTF reference. Differential gene expression analysis was performed with DESeq2 [29]. Transcripts were considered to be differentially expressed if the false discovery rate < 0.05 and Log2FC > 2. When performing differential gene expression for GSEA analysis, the Limma package was used (<5 CPM filtering) with t-scores used for rank statistics. GSEA plots and statistics were generated with FGSEA with custom gene sets. Raw sequencing reads and processed files have been deposited in the GEO repository (data will be uploaded upon manuscript acceptance). The Universal Probe Library probes (Roche) and the associated primer sequences for the qPCR targets are listed below: […]

T1 sequence (Q15561 217-434): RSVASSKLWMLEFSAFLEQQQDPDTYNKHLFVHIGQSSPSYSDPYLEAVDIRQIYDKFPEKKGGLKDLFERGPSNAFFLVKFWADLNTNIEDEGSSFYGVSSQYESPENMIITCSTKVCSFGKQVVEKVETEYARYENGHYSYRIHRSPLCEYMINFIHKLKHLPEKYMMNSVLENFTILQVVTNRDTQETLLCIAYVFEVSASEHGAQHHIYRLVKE

O=C(O)C1=CC(=C(c2ccc(O)c(C(=O)O)c2)c2ccc(O)c(C(=O)O)c2)C=CC1=O [ATA, aurintricarboxylic acid]
Kd [1]: 3 µM
melting temperature (Tm) of TAZ + ATA (TAZ): 53.1 °C
Log2 Fold Change, Pkig (ENSMUSG00000035268) [2]: 0.2955
GSEA normalized enrichment score (NES) for the 248 TC-upregulated genes ([2]; ATA-treated vs vehicle, TC-expressing NIH3T3, 10 μM, 48 h, P = 0.0036): -2.027
Log2 Fold Change, Cep83os (ENSMUSG00000097164) ([2]; TC ATA v. TC DMSO, RNA-Seq differential gene expression, gene Cep83os): 0.5451
Log2 Fold Change, P3h1 (ENSMUSG00000028641) ([2]; TC ATA v. TC DMSO, RNA-Seq differential gene expression, gene P3h1): 0.1936
Log2 Fold Change, Per1 (ENSMUSG00000020893) ([2]; TC ATA v. TC DMSO, RNA-Seq differential gene expression, gene Per1): 0.3113
Log2 Fold Change, Spn (ENSMUSG00000051457) ([2]; TC ATA v. TC DMSO, RNA-Seq differential gene expression, gene Spn): 0.7001
Log2 Fold Change, Wnt9a (ENSMUSG00000000126) ([2]; TC ATA v. TC DMSO, RNA-Seq differential gene expression, gene Wnt9a): -0.2847
Log2 Fold Change ([2]; gene AW551984, TC ATA v. TC DMSO): 0.7046
Log2 Fold Change ([2]; gene Abcd2, TC ATA v. TC DMSO): 0.775
Log2 Fold Change ([2]; gene Adgra2, TC ATA v. TC DMSO): -0.4459
Log2 Fold Change ([2]; gene Adgrl2, TC ATA v. TC DMSO): 0.4171
Log2 Fold Change ([2]; gene Angpt2, TC ATA v. TC DMSO): 1.066
Log2 Fold Change ([2]; gene Angptl2, TC ATA v. TC DMSO): -0.3301
Log2 Fold Change ([2]; gene Asb4, TC ATA v. TC DMSO): 0.7498
Log2 Fold Change ([2]; gene Asic1, TC ATA v. TC DMSO): 0.4827
Log2 Fold Change ([2]; gene Atg9b, TC ATA v. TC DMSO): -1.183
Log2 Fold Change ([2]; gene Atp1a2, TC ATA v. TC DMSO): 0.776
Log2 Fold Change ([2]; gene Atp1b1, TC ATA v. TC DMSO): 0.4541
Log2 Fold Change ([2]; gene Cacng7, TC ATA v. TC DMSO): 0.4229
Log2 Fold Change ([2]; gene Cbr2, TC ATA v. TC DMSO): 1.297
Log2 Fold Change ([2]; gene Ccdc80, TC ATA v. TC DMSO): 0.4999
Log2 Fold Change ([2]; gene Cd24a, TC ATA v. TC DMSO): 0.8435
Log2 Fold Change ([2]; gene Cd81, TC ATA v. TC DMSO): 0.3883
Log2 Fold Change ([2]; gene Chrnb1, TC ATA v. TC DMSO): -0.628
Log2 Fold Change ([2]; gene Ckmt2, TC ATA v. TC DMSO): 0.9415
Log2 Fold Change ([2]; gene Clu, TC ATA v. TC DMSO): 0.6162
Log2 Fold Change ([2]; gene Col4a6, TC ATA v. TC DMSO): 0.4089
Log2 Fold Change ([2]; gene Coq8a, TC ATA v. TC DMSO): 0.862
Log2 Fold Change ([2]; gene Creg1, TC ATA v. TC DMSO): 0.425
Log2 Fold Change ([2]; gene Csrp2, TC ATA v. TC DMSO): -0.43
Log2 Fold Change ([2]; gene Cth, TC ATA v. TC DMSO): -0.3812
Log2 Fold Change ([2]; gene Dhrs3, TC ATA v. TC DMSO): 0.4703
Log2 Fold Change ([2]; gene Dlk1, TC ATA v. TC DMSO): 0.4509
Log2 Fold Change ([2]; gene Dmpk, TC ATA v. TC DMSO): 0.6567
Log2 Fold Change ([2]; gene Dpep1, TC ATA v. TC DMSO): 0.7304
Log2 Fold Change ([2]; gene Epha4, TC ATA v. TC DMSO): 0.8248
Log2 Fold Change ([2]; gene Ercc1, TC ATA v. TC DMSO): -0.7217
Log2 Fold Change ([2]; gene Errfi1, TC ATA v. TC DMSO): -0.4719
Log2 Fold Change ([2]; gene Fabp3, TC ATA v. TC DMSO): 1.14
Log2 Fold Change ([2]; gene Fam13c, TC ATA v. TC DMSO): 0.6886
Log2 Fold Change ([2]; gene Fam110c, TC ATA v. TC DMSO): -0.7995
Log2 Fold Change ([2]; gene Fam114a1, TC ATA v. TC DMSO): 0.3512
Log2 Fold Change ([2]; gene Fgf7, TC ATA v. TC DMSO): 0.4417
Log2 Fold Change ([2]; gene Fn1, TC ATA v. TC DMSO): 0.5505
Log2 Fold Change ([2]; gene Galnt15, TC ATA v. TC DMSO): 1.35
Log2 Fold Change ([2]; gene Gas1, TC ATA v. TC DMSO): 0.4145
Log2 Fold Change ([2]; gene Ggct, TC ATA v. TC DMSO): -0.7955
Log2 Fold Change ([2]; gene Gm49774, TC ATA v. TC DMSO): -0.6084
Log2 Fold Change ([2]; gene Gse1, TC ATA v. TC DMSO): 0.7002
Log2 Fold Change ([2]; gene Gsta3, TC ATA v. TC DMSO): 0.7075
Log2 Fold Change ([2]; gene Gstm1, TC ATA v. TC DMSO): 0.6142
Log2 Fold Change ([2]; gene Hivep3, TC ATA v. TC DMSO): 0.5196
Log2 Fold Change ([2]; gene Hmga1b, TC ATA v. TC DMSO): -0.4737
Log2 Fold Change ([2]; gene Htra1, TC ATA v. TC DMSO): -0.7041
Log2 Fold Change ([2]; gene Id1, TC ATA v. TC DMSO): 1.021
Log2 Fold Change ([2]; gene Id3, TC ATA v. TC DMSO): 0.8267
Log2 Fold Change ([2]; gene Igfbp4, TC ATA v. TC DMSO): 0.6017
Log2 Fold Change ([2]; gene Il1r1, TC ATA v. TC DMSO): 0.3663
Log2 Fold Change ([2]; gene Il11ra1, TC ATA v. TC DMSO): 0.412
Log2 Fold Change ([2]; gene Il17rd, TC ATA v. TC DMSO): 0.6209
Log2 Fold Change ([2]; gene Ipo7, TC ATA v. TC DMSO): -0.2967
Log2 Fold Change ([2]; gene Lrig1, TC ATA v. TC DMSO): -0.4157
Log2 Fold Change ([2]; gene Ltbp2, TC ATA v. TC DMSO): -0.4917
Log2 Fold Change ([2]; gene Ly6a, TC ATA v. TC DMSO): 1.151
Log2 Fold Change ([2]; gene Mgst1, TC ATA v. TC DMSO): 1.029
Log2 Fold Change ([2]; gene Mocs1, TC ATA v. TC DMSO): 0.3748
Log2 Fold Change ([2]; gene Mrgprf, TC ATA v. TC DMSO): 0.6309
Log2 Fold Change ([2]; gene Mybpc1, TC ATA v. TC DMSO): 0.8979
Log2 Fold Change ([2]; gene Myl3, TC ATA v. TC DMSO): 1.696
Log2 Fold Change ([2]; gene Myoz2, TC ATA v. TC DMSO): 1.5589
Log2 Fold Change ([2]; gene Naaa, TC ATA v. TC DMSO): 0.4836
Log2 Fold Change ([2]; gene Nefm, TC ATA v. TC DMSO): -1.532
Log2 Fold Change ([2]; gene Nes, TC ATA v. TC DMSO): -0.5782
Log2 Fold Change ([2]; gene Nipal1, TC ATA v. TC DMSO): -0.5524
Log2 Fold Change ([2]; gene Nqo1, TC ATA v. TC DMSO): 0.5252
Log2 Fold Change ([2]; gene Nrcam, TC ATA v. TC DMSO): -1.361
Log2 Fold Change ([2]; gene Nrn1, TC ATA v. TC DMSO): 0.4579
Log2 Fold Change ([2]; gene Nrxn2, TC ATA v. TC DMSO): 0.7098
Log2 Fold Change ([2]; gene Odc1, TC ATA v. TC DMSO): -0.4352
Log2 Fold Change ([2]; gene Optn, TC ATA v. TC DMSO): 0.5559
Log2 Fold Change ([2]; gene Osmr, TC ATA v. TC DMSO): 0.5327
Log2 Fold Change ([2]; gene Pcx, TC ATA v. TC DMSO): 0.5741
Log2 Fold Change ([2]; gene Pdgfrb, TC ATA v. TC DMSO): 0.5085
Log2 Fold Change ([2]; gene Pdgfrl, TC ATA v. TC DMSO): 0.4243
Log2 Fold Change ([2]; gene Podnl1, TC ATA v. TC DMSO): -0.4267
Log2 Fold Change ([2]; gene Prrx2, TC ATA v. TC DMSO): 0.8257
Log2 Fold Change ([2]; gene Pvr, TC ATA v. TC DMSO): -0.3787
Log2 Fold Change ([2]; gene Rcan2, TC ATA v. TC DMSO): 0.6454
Log2 Fold Change ([2]; gene Rgs4, TC ATA v. TC DMSO): 0.757
Log2 Fold Change ([2]; gene Rnf150, TC ATA v. TC DMSO): 0.5435
Log2 Fold Change ([2]; gene Sema7a, TC ATA v. TC DMSO): -1.826
Log2 Fold Change ([2]; gene Serpinb9, TC ATA v. TC DMSO): 0.5861
Log2 Fold Change ([2]; gene Serpine2, TC ATA v. TC DMSO): 0.9636
Log2 Fold Change ([2]; gene Setbp1, TC ATA v. TC DMSO): 0.5242
Log2 Fold Change ([2]; gene Slc45a3, TC ATA v. TC DMSO): 0.6918
Log2 Fold Change ([2]; gene Smoc2, TC ATA v. TC DMSO): 0.9475
Log2 Fold Change ([2]; gene Ssbp2, TC ATA v. TC DMSO): 0.4963
Log2 Fold Change ([2]; gene Stard10, TC ATA v. TC DMSO): 0.7192
Log2 Fold Change ([2]; gene Sulf2, TC ATA v. TC DMSO): 0.5447
Log2 Fold Change ([2]; gene Thbs3, TC ATA v. TC DMSO): 0.6372
Log2 Fold Change ([2]; gene Tmem119, TC ATA v. TC DMSO): 0.9507
Log2 Fold Change ([2]; gene Tnnt1, TC ATA v. TC DMSO): 1.595
Log2 Fold Change ([2]; gene Tnxb, TC ATA v. TC DMSO): 0.5484
Log2 Fold Change ([2]; gene Tpm2, TC ATA v. TC DMSO): 0.3178
Log2 Fold Change ([2]; gene Trim30a, TC ATA v. TC DMSO): 1.18
Log2 Fold Change ([2]; gene Trp53inp2, TC ATA v. TC DMSO): 0.6286
Log2 Fold Change ([2]; gene Zfp503, TC ATA v. TC DMSO): 0.4797
